Assay [1] relates to p21 induction in HCT 116 cells. Put plainly: p21 induction in cells (In-Cell Western, p21/GAPDH ratio). As to conditions: 24 h compound incubation, read-out: p21_EC50. Format: cell-based. In short, it runs like this: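 EC50 values come from nonlinear fits of percent activation, defined by the 800/700 nm p21-to-GAPDH ratio scaled between DMSO (low) and internal WRN inhibitor (high) controls. In-Cell Western read after 24 h compound exposure of HCT 116 cells at 37° C. Duplicate 11-point series, 2-fold steps, usually starting at 10 μM.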

The target in assay [2] is human Werner helicase (WRN, amino acids 517-1235 with L1074F point mutation) (Homo sapiens (Human), UniProt Q14191, L1074F). In words: WRN (BV08) ADP-Glo assay. Format: biochemical. To be noted: human WRN (aa 517-1235, L1074F), read-out: ADP-Glo_hWRN_IC50. In short, it runs like this:
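ADP-Glo luminescence read after 60 min, 25 °C reaction of 0.15 nM WRN (517-1235, L1074F, Sf9-expressed, tag removed) with 0.1 nM DNA duplex and 5 μM ATP, following 15 min compound preincubation; 20 mM Bicine pH 7.5, 1% DMSO. IC50 from 3- or 4-parameter fit of % inhibition.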

Where two headings read alike, the source gives them in different places.

Chain of human Werner helicase (WRN, amino acids 517-1235 with L1074F point mutation) (Q14191 other isoform, or with tags, fused parts or gaps L1074F (already in the parent)): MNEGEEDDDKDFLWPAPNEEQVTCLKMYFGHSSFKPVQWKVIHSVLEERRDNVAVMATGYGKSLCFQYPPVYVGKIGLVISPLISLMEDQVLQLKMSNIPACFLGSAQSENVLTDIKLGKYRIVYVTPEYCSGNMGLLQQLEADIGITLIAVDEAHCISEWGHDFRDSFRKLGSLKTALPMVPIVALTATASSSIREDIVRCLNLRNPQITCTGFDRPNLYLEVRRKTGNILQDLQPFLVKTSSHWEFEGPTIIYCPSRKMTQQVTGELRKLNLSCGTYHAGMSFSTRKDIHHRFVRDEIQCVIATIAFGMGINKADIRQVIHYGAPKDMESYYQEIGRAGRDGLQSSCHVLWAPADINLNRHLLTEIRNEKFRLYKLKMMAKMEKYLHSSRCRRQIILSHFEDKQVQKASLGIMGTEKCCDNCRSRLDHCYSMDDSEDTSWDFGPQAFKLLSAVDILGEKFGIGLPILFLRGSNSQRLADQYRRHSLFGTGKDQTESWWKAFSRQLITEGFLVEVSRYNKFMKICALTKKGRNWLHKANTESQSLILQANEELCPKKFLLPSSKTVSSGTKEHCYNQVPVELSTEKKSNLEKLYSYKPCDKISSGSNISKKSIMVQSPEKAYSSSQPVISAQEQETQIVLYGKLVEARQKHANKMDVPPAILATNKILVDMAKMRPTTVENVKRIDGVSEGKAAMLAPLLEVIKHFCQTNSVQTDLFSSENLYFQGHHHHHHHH

`CCc1c(N2CCN(C(=O)c3c(O)cncc3OC)CC2)c(=O)c2nn(-c3ccnc(OC)c3)nc2n1CC(=O)NC12CC(C(C)C)(C1)C2` [Compound I-37, 2-{5-ethyl-6-[4-(3-hydroxy-5-methoxypyridine-4-carbonyl)piperazin-1-yl]-2-(2-methoxypyridin-4-yl)-7-oxo-2H,4H,7H-[1,2,3]triazolo[4,5-b]pyridin-4-yl}-N-[3-(propan-2-yl)bicyclo[1.1.1]pentan-1-yl]acetamide]: the EC50 in assay [1] (Homo sapiens) fell in the range of 500 to 2000 nM. Moreover, the IC50 in assay [2] lay in the range of 5 to 50 nM.
For `CCc1c(N2CCN(C(=O)c3c(OC)ncc(C)c3O)CC2)c(=O)c2nn(-c3ccnc(OC)c3)nc2n1CC(=O)NC1CC2(CCC2)C1` [Compound I-125, 2-{5-ethyl-6-[4-(4-hydroxy-2-methoxy-5-methylpyridine-3-carbonyl)piperazin-1-yl]-2-(2-methoxypyridin-4-yl)-7-oxo-2H,4H,7H-[1,2,3]triazolo[4,5-b]pyridin-4-yl}-N-{spiro[3.3]heptan-2-yl}acetamide], the EC50 in assay [1] (Homo sapiens) was 500 to 2000 nM. Further, the IC50 in assay [2] lay in the range of 5 to 50 nM.
In the case of `CCc1c(N2CCN(C(=O)c3c(OC)ncc([C@@H]4CCOC4)c3O)CC2)c(=O)c2nn(-c3ccnc(OC)c3)nc2n1CC(=O)NC12CC(C(C)C)(C1)C2` (single isomer, unassigned) [Compound I-44], in assay [1] (Homo sapiens), the EC50 was at most 500 nM. For the same compound, the IC50 in assay [2] lay within 5 to 50 nM.
On to `CCc1c(N2CCN(C(=O)c3ncnc(C)c3O)[C@H]3CC[C@@H]32)c(=O)c2nn(-c3ccnc(OC)c3)nc2n1CC(=O)NC12CC(C(F)(F)F)(C1)C2` [Compound I-11, 2-(5-ethyl-6-((1S,6S)-5-(5-hydroxy-6-methylpyrimidine-4-carbonyl)-2,5-diazabicyclo[4.2.0]octan-2-yl)-2-(2-methoxypyridin-4-yl)-7-oxo-2,7-dihydro-4H-[1,2,3]triazolo[4,5-b]pyridin-4-yl)-N-(3-(trifluoromethyl)bicyclo[1.1.1]pentan-1-yl)acetamide], for which the EC50 in assay [1] (Homo sapiens) was at most 500 nM. Further, the IC50 in assay [2] lay in the range of 5 to 50 nM.
With `CCc1c(N2CCN(C(=O)c3ncnc(C)c3O)[C@H]3CC[C@@H]32)c(=O)c2nn(-c3ccnc(C)c3)nc2n1CC(=O)Nc1ccc(C(F)(F)F)cc1F` [Compound I-59, 2-{5-ethyl-6-[(1S,6S)-5-(5-hydroxy-6-methylpyrimidine-4-carbonyl)-2,5-diazabicyclo[4.2.0]octan-2-yl]-2-(2-methylpyridin-4-yl)-7-oxo-2H,4H,7H-[1,2,3]triazolo[4,5-b]pyridin-4-yl}-N-[2-fluoro-4-(trifluoromethyl)phenyl]acetamide], in assay [1] (Homo sapiens), the EC50 was at most 500 nM. The IC50 in assay [2] is at most 5 nM.
Turning to `CCc1c(N2CCN(C(=O)c3ncnc(C)c3O)[C@H]3CC[C@@H]32)c(=O)c2nn(C3CC3)nc2n1CC(=O)NC12CC(C3CC3)(C1)C2` [Compound I-202, 2-{2-cyclopropyl-5-ethyl-6-[(1S,6S)-5-(5-hydroxy-6-methylpyrimidine-4-carbonyl)-2,5-diazabicyclo[4.2.0]octan-2-yl]-7-oxo-2H,4H,7H-[1,2,3]triazolo[4,5-b]pyridin-4-yl}-N-{3-cyclopropylbicyclo[1.1.1]pentan-1-yl}acetamide], the EC50 in assay [1] (Homo sapiens) is 500 to 2000 nM. Besides, in assay [2], the IC50 fell in the range of 5 to 50 nM.
Take `CCc1c(N2CCN(C(=O)c3c(OC)ncc(C)c3O)[C@H]3CC[C@@H]32)c(=O)c2nn(-c3ccnc(OC)c3)nc2n1CC(=O)NC1CC2(CCC2)C1` [Compound I-93, 2-{5-ethyl-6-[(1S,6S)-5-(4-hydroxy-2-methoxy-5-methylpyridine-3-carbonyl)-2,5-diazabicyclo[4.2.0]octan-2-yl]-2-(2-methoxypyridin-4-yl)-7-oxo-2H,4H,7H-[1,2,3]triazolo[4,5-b]pyridin-4-yl}-N-{spiro[3.3]heptan-2-yl}acetamide]: the EC50 in assay [1] (Homo sapiens) is at most 500 nM. For the same compound, the IC50 in assay [2] fell in the range of 5 to 50 nM.
For the compound `CCc1c(N2CCN(C(=O)c3ncnc(C)c3O)CC2)c(=O)c2nn(-c3ccncc3)nc2n1CC(=O)NC12CC(C3CCC3)(C1)C2` [Compound I-141, N-{3-cyclobutylbicyclo[1.1.1]pentan-1-yl}-2-{5-ethyl-6-[4-(5-hydroxy-6-methylpyrimidine-4-carbonyl)piperazin-1-yl]-7-oxo-2-(pyridin-4-yl)-2H,4H,7H-[1,2,3]triazolo[4,5-b]pyridin-4-yl}acetamide], the EC50 in assay [1] (Homo sapiens) was in the range of 500 to 2000 nM. Further, the IC50 in assay [2] fell in the range of 5 to 50 nM.
On the same counts, the results for `CCc1c(N2CCN(C(=O)c3cccnc3OC)[C@H]3CC[C@@H]32)c(=O)c2nn(C3=CCOCC3)nc2n1CC(=O)Nc1ccc(C(F)F)cc1F` [Compound I-211, N-[4-(difluoromethyl)-2-fluorophenyl]-2-[2-(3,6-dihydro-2H-pyran-4-yl)-5-ethyl-6-[(1S,6S)-5-(2-methoxypyridine-3-carbonyl)-2,5-diazabicyclo[4.2.0]octan-2-yl]-7-oxo-2H,4H,7H-[1,2,3]triazolo[4,5-b]pyridin-4-yl]acetamide] are at most 500 nM and at most 5 nM.
Consider `CCc1c(N2CCN(C(=O)c3ncnc(C)c3O)[C@@H]3CCC[C@@H]32)c(=O)c2nn(-c3ccnc(OC)c3)nc2n1CC(=O)NC12CC(C(C)C)(C1)C2` (relative stereo) [Compound I-77, rel-2-{6-[(4aR,7aS)-4-(5-hydroxy-6-methylpyrimidine-4-carbonyl)-octahydro-1H-cyclopenta[b]pyrazin-1-yl]-5-ethyl-2-(2-methoxypyridin-4-yl)-7-oxo-2H,4H,7H-[1,2,3]triazolo[4,5-b]pyridin-4-yl}-N-[3-(propan-2-yl)bicyclo[1.1.1]pentan-1-yl]acetamide], for which, in assay [1] (Homo sapiens), the EC50 was over 5000 nM. The IC50 in assay [2] is over 500 nM.
On the same counts, the results for `CCc1c(N2CCN(C(=O)c3c(OC)ncc(C)c3O)CC2)c(=O)c2nn(-c3ccnc(OC)c3)nc2n1CC(=O)NC1CC2(CCCC2)C1` [Compound I-99, 2-{5-ethyl-6-[4-(4-hydroxy-2-methoxy-5-methylpyridine-3-carbonyl)piperazin-1-yl]-2-(2-methoxypyridin-4-yl)-7-oxo-2H,4H,7H-[1,2,3]triazolo[4,5-b]pyridin-4-yl}-N-{spiro[3.4]octan-2-yl}acetamide] are 500 to 2000 nM and 5 to 50 nM.
Consider `CCc1c(N2CCN(C(=O)c3ncnc(C)c3O)[C@H]3CC[C@@H]32)c(=O)c2nn(-c3ccnc(C)c3)nc2n1CC(=O)NC12CC(C3CC3)(C1)C2` [Compound I-84, N-{3-cyclopropylbicyclo[1.1.1]pentan-1-yl}-2-{5-ethyl-6-[(1S,6S)-5-(5-hydroxy-6-methylpyrimidine-4-carbonyl)-2,5-diazabicyclo[4.2.0]octan-2-yl]-2-(2-methylpyridin-4-yl)-7-oxo-2H,4H,7H-[1,2,3]triazolo[4,5-b]pyridin-4-yl}acetamide], for which the EC50 in assay [1] is at most 500 nM. For the same compound, in assay [2], the IC50 lay within 5 to 50 nM.
`CCc1c(N2CCN(C(=O)c3ncnc(C)c3O)[C@H]3CC[C@@H]32)c(=O)c2nn(-c3ccnc(OC)c3)nc2n1CC(=O)NC1CC2(CCC2)C1` [Compound I-21, 2-(5-ethyl-6-((1S,6S)-5-(5-hydroxy-6-methylpyrimidine-4-carbonyl)-2,5-diazabicyclo[4.2.0]octan-2-yl)-2-(2-methoxypyridin-4-yl)-7-oxo-2,7-dihydro-4H-[1,2,3]triazolo[4,5-b]pyridin-4-yl)-N-(spiro[3.3]heptan-2-yl)acetamide]: the EC50 in assay [1] (Homo sapiens) was at most 500 nM. Moreover, the IC50 in assay [2] fell in the range of 5 to 50 nM.
On the same counts, the results for `CCc1c(N2CCN(C(=O)c3nccnc3OC)[C@H]3CC[C@@H]32)c(=O)c2nn(C3=CCOCC3)nc2n1CC(=O)NC12CC(C(C)C)(C1)C2` [Compound I-200, 2-[2-(3,6-dihydro-2H-pyran-4-yl)-5-ethyl-6-[(1S,6S)-5-(3-methoxypyrazine-2-carbonyl)-2,5-diazabicyclo[4.2.0]octan-2-yl]-7-oxo-2H,4H,7H-[1,2,3]triazolo[4,5-b]pyridin-4-yl]-N-[3-(propan-2-yl)bicyclo[1.1.1]pentan-1-yl]acetamide] are at most 500 nM and 5 to 50 nM.
Consider `CCc1c(N2CCN(C(=O)c3ncnc(C)c3O)CC2)c(=O)c2nn(-c3ccnc(C)c3)nc2n1CC(=O)Nc1ccc(C(F)(F)F)cc1Cl` [Compound I-7, N-(2-chloro-4-(trifluoromethyl)phenyl)-2-(5-ethyl-6-(4-(5-hydroxy-6-methylpyrimidine-4-carbonyl)piperazin-1-yl)-2-(2-methylpyridin-4-yl)-7-oxo-2,7-dihydro-4H-[1,2,3]triazolo[4,5-b]pyridin-4-yl)acetamide], for which the EC50 in assay [1] (Homo sapiens) was at most 500 nM. Also, the IC50 in assay [2] was at most 5 nM.
For `CCc1c(N2CCN(C(=O)c3cccc4ncoc34)[C@H]3CC[C@@H]32)c(=O)c2nn(C3=CCOCC3)nc2n1CC(=O)Nc1ccc(C(F)(F)F)cc1Cl` [Compound I-115, 2-{6-[(1S,6S)-5-(1,3-benzoxazole-7-carbonyl)-2,5-diazabicyclo[4.2.0]octan-2-yl]-2-(3,6-dihydro-2H-pyran-4-yl)-5-ethyl-7-oxo-2H,4H,7H-[1,2,3]triazolo[4,5-b]pyridin-4-yl}-N-[2-chloro-4-(trifluoromethyl)phenyl]acetamide] the same measures were at most 500 nM and 5 to 50 nM.
